In US9802960B2 (MILLENNIUM PHARMACEUTICALS, INC., priority 2014, dated 2017):

Molecular target: Human VPS34 (Homo sapiens (Human), UniProt Q8NEB9)
Test: Human VPS34 enzyme assay (Adapta TR-FRET)
Assay type: biochemical
Conditions: compound concentration 1.11 μM

Sequence of Human VPS34 (Q8NEB9 whole entry): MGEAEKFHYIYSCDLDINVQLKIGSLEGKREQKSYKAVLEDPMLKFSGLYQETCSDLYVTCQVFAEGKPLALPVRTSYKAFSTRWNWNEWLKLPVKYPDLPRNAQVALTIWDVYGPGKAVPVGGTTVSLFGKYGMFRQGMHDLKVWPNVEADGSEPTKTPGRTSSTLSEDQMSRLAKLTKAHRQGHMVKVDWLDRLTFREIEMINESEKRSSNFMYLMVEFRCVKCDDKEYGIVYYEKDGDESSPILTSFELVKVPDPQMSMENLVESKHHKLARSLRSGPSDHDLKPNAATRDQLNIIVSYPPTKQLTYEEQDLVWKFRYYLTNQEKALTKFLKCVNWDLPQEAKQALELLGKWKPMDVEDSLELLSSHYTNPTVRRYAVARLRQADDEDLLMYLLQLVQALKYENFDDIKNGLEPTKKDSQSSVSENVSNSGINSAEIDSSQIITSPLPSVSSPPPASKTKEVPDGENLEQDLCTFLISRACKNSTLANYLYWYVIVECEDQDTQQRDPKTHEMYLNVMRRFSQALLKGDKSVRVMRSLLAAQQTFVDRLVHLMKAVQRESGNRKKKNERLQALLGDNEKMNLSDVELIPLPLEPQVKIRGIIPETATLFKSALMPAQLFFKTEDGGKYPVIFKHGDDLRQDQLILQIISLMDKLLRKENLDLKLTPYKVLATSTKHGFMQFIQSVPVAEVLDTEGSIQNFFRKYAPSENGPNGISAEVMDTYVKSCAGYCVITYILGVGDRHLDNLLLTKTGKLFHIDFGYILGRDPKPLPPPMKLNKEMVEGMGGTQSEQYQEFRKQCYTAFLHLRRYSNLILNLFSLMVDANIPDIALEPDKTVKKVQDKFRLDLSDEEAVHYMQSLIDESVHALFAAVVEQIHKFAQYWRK

| Compound | Percent Inhibition [%] |
| --- | --- |
| CCc1c(-c2ccnc(Nc3ccnc(C)n3)c2)cnc(Cl)c1NS(=O)(=O)c1ccc(F)cc1F [Compound I-259, N-{6-chloro-4-ethyl-2′-[(2-methylpyrimidin-4-yl)amino]-3,4′-bipyridin-5-yl}-2,4-difluorobenzene sulfonamide] | 79 |

Same assay, conditions: compound concentration 1.11 μM; read-out: Percent Inhibition

| Compound | inhibition at 1.11 µM [%] |
| --- | --- |
| CC(=O)Nc1cc(-c2cnc(C)c(NS(=O)(=O)c3cccc(C(C)(C)C)c3)c2)ccn1 [Compound I-70, N-(5-{[(3-tert-butylphenyl)sulfonyl]amino}-6-methyl-3,4′-bipyridin-2′-yl)acetamide] | > 99 |
| CC(=O)Nc1cc(-c2cncc(S(=O)(=O)NC34CC(C3)C4)c2)ccn1 [Compound I-190, N-[5-(bicyclo[1.1.1]pent-1-ylsulfamoyl)-3,4′-bipyridin-2′-yl]acetamide] | 96 |
| CC(=O)Nc1cc(-c2cncc(N3CCCS3(=O)=O)c2)ccn1 [Compound I-192, N-[5-(1,1-dioxidoisothiazolidin-2-yl)-3,4′-bipyridin-2′-yl]acetamide] | > 99 |
| CC(=O)Nc1cc(-c2cnc(N(C)C)c(C(=O)Nc3ccc(F)cc3F)c2)ccn1 [Compound I-112, 2′-acetamido-N-(2,4-difluorophenyl)-6-(dimethylamino)-3,4′-bipyridine-5-carboxamide] | > 99 |
| CCN(CC)C(=O)c1cc(-c2ccnc(Nc3ccnc(C)n3)c2)cnc1C [Compound I-302, N,N-diethyl-6-methyl-2′-[(2-methylpyrimidin-4-yl)amino]-3,4′-bipyridine-5-carboxamide] | 83 |
| CCCCS(=O)(=O)Nc1cc(-c2ccnc(NC(C)=O)c2)cnc1C [Compound I-373, N-{5-[(butylsulfonyl)amino]-6-methyl-3,4′-bipyridin-2′-yl}acetamide] | > 99 |
| Cc1ncc(-c2ccnc(Nc3ccc(C#N)cn3)c2)cc1NS(=O)(=O)c1ccc(F)cc1F [Compound I-228, N-{2′-[(5-cyanopyridin-2-yl)amino]-6-methyl-3,4′-bipyridin-5-yl}-2,4-difluorobenzene sulfonamide] | > 99 |
| Cc1c(-c2ccnc(Nc3ccnc(C4CC4)n3)c2)cnc(Cl)c1C(=O)N1CCC1 [Compound I-361, azetidin-1-yl(6-chloro-2′-((2-cyclopropylpyrimidin-4-yl)amino)-4-methyl-[3,4′-bipyridin]-5-yl)methanone] | 90 |
| Cc1nccc(Nc2cc(-c3cnc(C)c(C(=O)N4CCC4)c3)ccn2)n1 [Compound I-304, Azetidin-1-yl(6-methyl-2′-((2-methylpyrimidin-4-yl)amino)-3,4′-bipyridin-5-yl)methanone] | 96 |
| CC(=O)Nc1cc(-c2cnc(C)c(NS(=O)(=O)c3ccc(C(F)(F)F)nc3)c2)ccn1 [Compound I-1, N-[6-methyl-5-({[6-(trifluoromethyl)pyridin-3-yl]sulfonyl}amino)-3,4′-bipyridin-2′-yl]acetamide] | > 99 |
| CC(=O)Nc1cc(-c2cnc(C)c(NS(=O)(=O)c3c(F)cccc3F)c2)ccn1 [Compound I-150, N-(5-{[(2,6-difluorophenyl)sulfonyl]amino}-6-methyl-3,4′-bipyridin-2′-yl)acetamide] | > 99 |
| CC(=O)Nc1cc(-c2ccnc(Nc3ccnc(C)n3)c2)cn2nccc12 [Compound I-450, N-(6-{2-[(2-methylpyrimidin-4-34)amino]pyridin-4-yl}pyrazolo[1,5-a]pyridin-4-yl)acetamide] | 87 |
| Cc1nccc(Nc2cc(-c3cnc(C)c(NC(=O)N4CC(F)(F)C4)c3)ccn2)n1 [Compound I-482, 3,3-difluoro-N-{6-methyl-2′-[(2-methylpyrimidin-4-yl)amino]-3,4′-bipyridin-5-yl}azetidine-1-carboxamide] | > 99 |
| Cc1nccc(Nc2cc(-c3cnc(Cl)c(NS(=O)(=O)c4ccc(F)cc4F)c3C)ccn2)n1 [Compound I-299, N-{6-chloro-4-methyl-2′-[(2-methylpyrimidin-4-yl)amino]-3,4′-bipyridin-5-yl}-2,4-difluorobenzenesulfonamide] | 98 |
| CC(=O)Nc1cc(-c2cnc(N)c(NCC3CC3)c2)ccn1 [Compound I-35, N-{6-amino-5-[(cyclopropylmethyl)amino]-3,4′-bipyridin-2′-yl}acetamide] | > 99 |
| CC(=O)Nc1cc(-c2cnc3[nH]ncc3c2)c(C)cn1 [Compound I-209, N-[5-methyl-4-(1H-pyrazolo[3,4-b]pyridin-5-yl)pyridin-2-yl]acetamide] | 49 |
| CC(=O)Nc1cc(-c2cnc(Cl)c(N3CCCS3(=O)=O)c2C)ccn1 [Compound I-425, N-[6-chloro-5-(1,1-dioxidoisothiazolidin-2-yl)-4-methyl-3,4′-bipyridin-2′-yl]acetamide] | 100 |
| O=C(Nc1cc(-c2cnc3[nH]ncc3c2)ccn1)C1CC1 [Compound I-117, N-[4-(1H-pyrazolo[3,4-b]pyridin-5-yl)pyridin-2-yl]cyclopropanecarboxamide] | > 99 |
| CC(=O)Nc1cc(-c2cnc3c(c2)S(=O)(=O)N[C@H](c2ccccc2)CO3)ccn1 [Compound I-420, (R)-N-(4-(1,1-dioxido-3-phenyl-3,4-dihydro-2H-pyrido[2,3-b][1,4,5]oxathiazepin-8-yl)pyridin-2-yl)acetamide] | 59 |

| Compound | inhibition at 1.11 µM [%] |
| --- | --- |
| CC(=O)Nc1cc(-c2cncc(N(C)S(=O)(=O)N(C)C)c2)ccn1 [Compound I-458, N-{5-[(dimethylsulfamoyl)(methyl)amino]-3,4′-bipyridin-2′-yl}acetamide] | > 99 |
| COc1ncc(-c2ccnc(NC(C)=O)c2)cc1S(=O)(=O)Nc1ccc(Cl)cc1Cl [Compound I-344, N-{5-[(2,4-dichlorophenyl)sulfamoyl]-6-methoxy-3,4′-bipyridin-2′-yl}acetamide] | > 99 |
| CC(=O)Nc1cc(-c2cnc(N)c(N3CCCS3(=O)=O)c2)ccn1 [Compound I-181, N-[6-amino-5-(1,1-dioxidoisothiazolidin-2-yl)-3,4′-bipyridin-2′-yl]acetamide] | > 99 |
| CC(=O)Nc1cc(-c2cnc(C)c(N(C)S(C)(=O)=O)c2)ccn1 [Compound I-96, N-{6-methyl-5-[methyl(methylsulfonyl)amino]-3,4′-bipyridin-2′-yl}acetamide] | > 99 |
| CC(=O)Nc1cc(-c2cnc(C)c(NS(=O)(=O)c3ccc(C(F)(F)F)cc3)c2)ccn1 [Compound I-90, N-[6-methyl-5-({[4-(trifluoromethyl)phenyl]sulfonyl}amino)-3,4′-bipyridin-2′-yl]acetamide] | > 99 |
| Cc1nccc(Nc2cc(-c3cnc(N(C)C)c(C(=O)N(C)C45CC(C4)C5)c3)ccn2)n1 [Compound I-306, N-(bicyclo[1.1.1]pent-1-yl)-6-(dimethylamino)-N-methyl-2′-((2-methylpyrimidin-4-yl)amino)-3,4′-bipyridine-5-carboxamide] | > 99 |
| CC(=O)Nc1cc(-c2cncc(S(=O)(=O)NC3C4CC5CC(C4)CC3C5)c2)ccn1 (stereo not drawn) [Compound I-318, N-[5-(adamantan-2-ylsulfamoyl)-3,4′-bipyridin-2′-yl]acetamide] | 97 |
| CC(=O)Nc1cc(-c2cnc(C)c(NS(=O)(=O)c3cccc(C(F)(F)F)c3)c2)ccn1 [Compound I-168, N-[6-methyl-5-({[3-(trifluoromethyl)phenyl]sulfonyl}amino)-3,4′-bipyridin-2′-yl]acetamide] | > 99 |
| CC(=O)Nc1cc(-c2cnc(C)c(NS(=O)(=O)c3cc(C)ccc3F)c2)ccn1 [Compound I-28, N-(5-{[(2-fluoro-5-methylphenyl)sulfonyl]amino}-6-methyl-3,4′-bipyridin-2′-yl)acetamide] | > 99 |
| CC(=O)Nc1cc(-c2cnc(N)c(S(=O)(=O)N(C)c3ccccc3)c2)ccn1 [Compound I-37, N-{6-amino-5-[methyl(phenyl)sulfamoyl]-3,4′-bipyridin-2′-yl}acetamide] | > 99 |
| CC(=O)Nc1cc(-c2cncc(Nc3ncco3)c2)ccn1 [Compound I-472, N-[5-(1,3-oxazol-2-ylamino)-3,4′-bipyridin-2′-yl]acetamide] | 96 |
| CC(=O)Nc1cc(-c2cnc(C)c(N3CCCN(C)S3(=O)=O)c2)ccn1 [Compound I-343, N[6-methyl-5-(6-methyl-1,1-dioxido-1,2,6-thiadiazinan-2-yl)-3,4′-bipyridin-2′-yl]acetamide] | > 99 |
| CC(=O)Nc1cc(-c2cnc(C)c(N(CCO)S(=O)(=O)c3ccc(F)cc3F)c2)ccn1 [Compound I-319, N-(5-{[(2,4-difluorophenyl)sulfonyl](2-hydroxyethyl)amino}-6-methyl-3,4′-bipyridin-2′-yl)acetamide] | 94 |
| Cc1c(-c2ccnc(Nc3ccnc(C4CC4)n3)c2)cnc(Cl)c1N [Compound I-355, 6-chloro-N~2~′-(2-cyclopropylpyrimidin-4-yl)-4-methyl-3,4′-bipyridine-2′,5-diamine] | 91 |
| CC(=O)Nc1cc(-c2cnc3[nH]ccc3c2)ccn1 [Compound I-140, N-[4-(1H-pyrrolo[2,3-b]pyridin-5-yl)pyridin-2-yl]acetamide] | > 99 |
| CC(=O)Nc1cc(-c2cnc(C)c(NS(=O)(=O)N(C)C)c2C)ccn1 [Compound I-260, N-{5-[(dimethylsulfamoyl)amino]-4,6-dimethyl-3,4′-bipyridin-2′-yl}acetamide] | 91 |
| CCOC(=O)Nc1cc(-c2cnc(C)c(NS(=O)(=O)c3ccc(F)cc3F)c2)ccn1 [Compound I-389, ethyl (5-{[(2,4-difluorophenyl)sulfonyl]amino}-6-methyl-3,4′-bipyridin-2′-yl)carbamate] | 95 |
| CC(=O)Nc1cc(-c2cncc(N3CCCCS3(=O)=O)c2)ccn1 [Compound I-320, N-[5-(1,1-dioxido-1,2-thiazinan-2-yl)-3,4′-bipyridin-2′-yl]acetamide] | 95 |
| Cc1nccc(Nc2cc(-c3cncc(C(=O)N4CC(F)(F)C4)c3)ccn2)n1 [Compound I-408, (3,3-difluoroazetidin-1-yl){2′-[(2-methylpyrimidin-4-yl)amino]-3,4′-bipyridin-5-yl}methanone] | > 99 |
